Source: patent US11059846B2, “Immune stimulating compound” (ISR IMMUNE SYSTEM REGULATION HOLDING AB (PUBL), priority 2017, dated 2021)

Legend:
human TLR2 = molecular target: T1, human TLR2 (Homo sapiens, UniProt O60603); test: TLR2 reporter assay (HEK-293-TLR cells, SEAP reporter); format: cell-based; conditions: compound 1 down to 5 μM; others up to 20 μM
T1 construct: host or cells: recombinant HEK-293-TLR cell lines
Experimental: These cell lines functionally over-express human TLR2 protein as well as a reporter gene which is a secreted alkaline phosphatase (SEAP). The production of this reporter gene is driven by an NFkB inducible promoter. […] 20 μl of each test article were used to stimulate the hTLR2 reporter cell lines in a 200 μl of final reaction volume. Samples were tested in duplicate, with at least two concentrations tested −20 μM and 10 μM.
Compounds were tested using a TLR2 reporter assay (see general methods) that measured for stimulation of the TLR2 receptor.

[1] = tested on: Human peripheral blood mononuclear cells (PBMCs); test: Marker expression on PBMC by flow cytometry; format: cell-based; conditions: 24 h
Experimental: Human peripheral blood mononuclear cells (PBMCs) were purified from healthy donors with Ficoll-Paque density centrifugation. Cells were cultured in complete RPMI-1640 media (Invitrogen) supplemented with 25 mM HEPES, L-glutamine, Sodium pyruvate (Sigma), 10% fetal bovine serum, 100 μg/mL penicillin and 100 μg/mL streptomycin (Hyclone) for 24-72 hours in 37° C., 5% CO2 and stimulated with and increasing concentrations of compound 1 and 2. Cells were then washed in PBS and stained with monoclonal antibodies specific for cell surface markers (BD Pharmingen) and analysed with flow cytomtery using a BD FACS Canto II flow cytometer. All samples were tested in duplicates.
Human peripheral blood mononuclear cells (PBMCs) were purified from healthy donors with Ficoll-Paque density centrifugation. Cells were cultured in complete RPMI-1640 medium (Invitrogen) supplemented with 25 mM HEPES, L-glutamine, Sodium pyruvate (Sigma), 10% fetal bovine serum, 100 μg/mL penicillin and 100 μg/mL streptomycin (Hyclone). Cells were stimulated for 24 h (study 1-4) or 48 h to 1 week (study 5) in 37° C., 5% CO2 with increasing concentrations of compound 1 and 2 in tissue culture plates. The cells were removed from the plate, washed in PBS and analysed for expression of cell specific surface markers and MHC class I with flow cytometry using monoclonal antibodies from BD Pharmingen and a FACS Canto II flow cytometer.

[2] = tested on: Monocytes differentiated into macrophages; test: CD80 expression on monocytes differentiated into macrophages, flow cytometry; format: cell-based, Human; conditions: 24 h
[3] = tested on: CMV specific CD8+ T cells; test: CMV cultures: phenotype of CMV specific CD8+ T cells; format: cell-based, Human; conditions: CMV antigen, 6 days
Experimental: FIG. 8. Upregulation of IL-7 receptor a (CD127) on CMV specific CD8 T cells after incubation with compound 1, measured with flow cytometry.
Human peripheral blood mononuclear cells (PBMCs) were purified from healthy CMV positive donors with Ficoll-Paque density centrifugation. The PBMC were labeled with 5 μM celltrace violet (Invitrogen) in PBS for 15 minutes and then washed with complete cell culture medium. The labeled PBMC was cultured in the presence of a peptide library spanning the CMV pp65 protein (1 μg peptide/ml, JPT) in AIM-V media (Invitrogen) supplemented with L-glutamine, Sodium pyruvate (Sigma), 10% fetal bovine serum, 100 μg/mL penicillin and 100 μg/mL streptomycin (Hyclone) for 6-8 days in 37° C., 5% CO2. Cell proliferation was assessed with flow cytomtery using a BD FACS Canto II flow cytometer.
Study 7: CMV virus specific T cell proliferation was also affected by compound 1. […] CD127 is crucial for T cell homeostasis, differentiation and function, and reduced expression correlates with disease severity in HIV and other chronic viral diseases (Crawley et al Sem Imm 2012).

[4] = tested on: PBMCs from CMV infected donors; test: IFN-gamma secretion from PBMCs of CMV infected donors with CMV antigen, cytometric bead assay; format: cell-based, Human; conditions: 3 days
Text: FIG. 9: Interferon-gamma secretion (as measured by cytometric bead assay) from PBMCs (from a CMV+ donor) grown with CMV peptides in the presence or absence of compound 1 or 2 for 5 days.
Study 8: PBMCs from CMV infected donors cultured in the presence of CMV antigen where either untreated or exposed to compound 1 or compound 2 for 3 days.

[5] = tested on: Macrophages from healthy donors; test: Cytokine/chemokine secretion from macrophages, cytometric bead assay; format: cell-based; conditions: 2 days
Experimental: FIG. 10: Interferon-gamma secretion (as measured by cytometric bead assay) from macrophages stimulated with indicated compound for 48 h.
(§1) FIG. 11: Chemokine RANTES secretion (as measured by cytometric bead assay) from PBMC or macrophages stimulated with indicated compound for 48 h.
(§2) FIG. 12: IL12p70 secretion (as measured by cytometric bead assay) from PBMC or macrophages stimulated with indicated compound for 48 h.
(§3) FIG. 13: IL1b secretion (as measured by cytometric bead assay) from PBMC, macro-phages or CD4 T cells stimulated with indicated compound for 48 h.
Study 9: Macrophages from healthy donors where exposed to compounds 1 or 2 for 48 hours. […] Compound 1 is therefore able to induce IFN-gamma secretion in macrophages from healthy donors.
(§4) Study 10: PBMCs and macrophages where exposed to compounds 1 or 2 for 2 days (FIG. 11).
(§5) Study 11: PBMCs and macrophages where exposed to compounds 1 and 2 for 2 days.
(§6) Study 12: PBMCs, macrophages and CD4+ T cells where exposed to compounds 1 and 2 for 2 days.

PBMCs = test: Cytokine/chemokine secretion from PBMC, cytometric bead assay; format: cell-based; conditions: 2 days
Experimental: as §1, §2, §3, §4, §5, §6

CD4+ T cells = test: IL-1beta secretion from CD4+ T cells, cytometric bead assay; format: cell-based; conditions: 2 days
Experimental: as §3, §6

C57bl/6 mice [6] = test: CD25 high cells in blood of mice after i.v. injection, flow cytometry; format: in vivo
Experimental: FIG. 14: % CD25 high cells in blood of C57bl/6 mice injected 24 h previously with indicated dose of compound 1. CD25 expression was measured by flow cytometry.
Study 13: Compound 1 was administered i.v. to C57bl/6 mice at 0.165 mg/kg to 5 mg/kg. CD25+ cell abundance was increased in animals receiving the highest dose of 5 mg/kg (FIG. 14), as was body weight in the same group (not shown).

C57bl/6 mice [7] = test: MHC class I expression on CD11b+ splenocytes of mice after i.v. injection, flow cytometry; format: in vivo; conditions: spleen removed 24 h later
Experimental: FIG. 15: % MHC class I high CD11b+ cells in spleen of 3 individual C57bl/6 mice injected 24 h previously with indicated compound. MHC class I and CD11b expression was measured by flow cytometry.
Study 14: Compound 1 or 2 was administered i.v. to C57bl/6 mice.

T1 sequence (O60603 21-784): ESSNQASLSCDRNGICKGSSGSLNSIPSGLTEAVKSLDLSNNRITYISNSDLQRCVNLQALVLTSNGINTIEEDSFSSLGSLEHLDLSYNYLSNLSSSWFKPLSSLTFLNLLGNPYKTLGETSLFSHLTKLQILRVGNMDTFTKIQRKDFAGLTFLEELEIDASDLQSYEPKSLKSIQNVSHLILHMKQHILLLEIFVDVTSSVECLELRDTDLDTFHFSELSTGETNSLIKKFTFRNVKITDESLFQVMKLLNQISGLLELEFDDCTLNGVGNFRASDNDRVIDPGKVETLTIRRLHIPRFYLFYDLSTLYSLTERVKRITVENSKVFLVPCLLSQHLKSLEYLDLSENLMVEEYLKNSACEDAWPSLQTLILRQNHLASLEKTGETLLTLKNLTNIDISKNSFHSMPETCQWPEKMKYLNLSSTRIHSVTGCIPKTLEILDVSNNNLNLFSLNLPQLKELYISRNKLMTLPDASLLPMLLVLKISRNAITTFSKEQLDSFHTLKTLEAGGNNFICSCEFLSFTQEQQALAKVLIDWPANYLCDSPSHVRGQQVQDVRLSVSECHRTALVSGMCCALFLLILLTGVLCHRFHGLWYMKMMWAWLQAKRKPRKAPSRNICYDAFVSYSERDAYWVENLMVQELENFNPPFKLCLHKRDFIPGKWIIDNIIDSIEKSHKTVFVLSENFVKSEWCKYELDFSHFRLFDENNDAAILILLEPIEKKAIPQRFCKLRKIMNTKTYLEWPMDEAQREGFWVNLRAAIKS

Row | stimulation of TLR2 (in words) (human TLR2) | Structure (SMILES) | CD69 expression on B cells ([1]; 1 μM) | CD69 expression on CD4+ T cells ([1]; 1 μM) | CD80 expression on monocytes [1] | MHC class I (HLA-ABC) expression on B-cells [1] | MHC class I (HLA-ABC) expression on T-cells [1] | MHC class II (HLA-DR) expression on monocytes [1] | CD80 expression on macrophages [2] | expression of IL-7 receptor a (CD127) on activated CMV specific CD8+ T cells [3] | IFN-gamma secretion [4] | IL-1beta secretion in macrophages [5] | RANTES expression in macrophages [5] | IL-1beta secretion in PBMCs (PBMCs) | RANTES expression in PBMCs (PBMCs) | IL-1beta secretion in CD4+ T cells (CD4+ T cells) | body weight (C57bl/6 mice [6]; 5 mg/kg group (not shown)) | CD25+ cell abundance in blood (C57bl/6 mice [6]; highest dose of 5 mg/kg, 24 h) | splenocyte cells (CD11b+) with high MHC I expression (C57bl/6 mice [7])
1 | little or no stimulation | CC[C@H]1OC(=O)[C@H](C)[C@@H](O[C@H]2C[C@@](C)(OC)[C@@H](O)[C@H](C)O2)[C@H](C)[C@@H](O[C@@H]2O[C@H](C)C[C@H](N(C)C)[C@H]2O)[C@](C)(O)C[C@@H](C)CN(C)[C@H](C)[C@@H](O)[C@]1(C)O [Azithromycin] | – | – | – | – | – | – | – | – | – | – | – | – | – | – | – | – | –
2 | little or no stimulation | CC[C@H]1OC(=O)[C@H](C)[C@@H](O[C@H]2C[C@@](C)(OC)[C@@H](O)[C@H](C)O2)[C@H](C)[C@@H](O[C@@H]2O[C@H](C)C[C@H](N(C)C)[C@H]2O)[C@](C)(O)C[C@@H](C)C(=O)[C@H](C)[C@@H](O)[C@]1(C)O [Erythromycin] | – | – | – | – | – | – | – | – | – | – | – | – | – | – | – | – | –

Row | Structure (SMILES) | stimulation of TLR2 (in words) (human TLR2) | CD69 expression on B cells ([1]; 1 μM) | CD69 expression on CD4+ T cells ([1]; 1 μM) | CD80 expression on monocytes [1] | MHC class I (HLA-ABC) expression on B-cells [1] | MHC class I (HLA-ABC) expression on T-cells [1] | MHC class II (HLA-DR) expression on monocytes [1] | CD80 expression on macrophages [2] | expression of IL-7 receptor a (CD127) on activated CMV specific CD8+ T cells [3] | IFN-gamma secretion [4] | IL-1beta secretion in macrophages [5] | RANTES expression in macrophages [5] | IL-1beta secretion in PBMCs (PBMCs) | RANTES expression in PBMCs (PBMCs) | IL-1beta secretion in CD4+ T cells (CD4+ T cells) | body weight (C57bl/6 mice [6]; 5 mg/kg group (not shown)) | CD25+ cell abundance in blood (C57bl/6 mice [6]; highest dose of 5 mg/kg, 24 h) | splenocyte cells (CD11b+) with high MHC I expression (C57bl/6 mice [7])
3 | CC[C@H]1OC(=O)[C@H](C)[C@@H](O[C@H]2C[C@@H](N(C)C)[C@H](O)[C@@H](C)O2)[C@H](C)[C@@H](O)[C@](C)(O)C[C@@H](C)CN(C)[C@H](C)[C@@H](O)[C@]1(C)O [Compound 1] | stimulated TLR2 | upregulated | upregulated | upregulation | upregulation | upregulation | upregulation | upregulated | increased expression | induced secretion of high levels | increased | high expression | slightly | twofold upregulation | no IL-1beta was induced | increased | increased | increase
